Results published in ChEMBL document CHEMBL1153827, “Novel aminopeptidase N inhibitors derived from antineoplaston AS2-5 (Part II)” (Bioorg Med Chem, 2009).

Legend:
[1] = biological target: 72 kDa type IV collagenase (Homo sapiens, UniProt P08253); test: Inhibition of MMP2
[2] = biological target: T1, Aminopeptidase N (Sus scrofa, UniProt P15145); test: Inhibition of pig kidney microsomal aminopeptidase N after 30 mins by UV-VIS spectrophotometry
T1 sequence (P15145 whole entry): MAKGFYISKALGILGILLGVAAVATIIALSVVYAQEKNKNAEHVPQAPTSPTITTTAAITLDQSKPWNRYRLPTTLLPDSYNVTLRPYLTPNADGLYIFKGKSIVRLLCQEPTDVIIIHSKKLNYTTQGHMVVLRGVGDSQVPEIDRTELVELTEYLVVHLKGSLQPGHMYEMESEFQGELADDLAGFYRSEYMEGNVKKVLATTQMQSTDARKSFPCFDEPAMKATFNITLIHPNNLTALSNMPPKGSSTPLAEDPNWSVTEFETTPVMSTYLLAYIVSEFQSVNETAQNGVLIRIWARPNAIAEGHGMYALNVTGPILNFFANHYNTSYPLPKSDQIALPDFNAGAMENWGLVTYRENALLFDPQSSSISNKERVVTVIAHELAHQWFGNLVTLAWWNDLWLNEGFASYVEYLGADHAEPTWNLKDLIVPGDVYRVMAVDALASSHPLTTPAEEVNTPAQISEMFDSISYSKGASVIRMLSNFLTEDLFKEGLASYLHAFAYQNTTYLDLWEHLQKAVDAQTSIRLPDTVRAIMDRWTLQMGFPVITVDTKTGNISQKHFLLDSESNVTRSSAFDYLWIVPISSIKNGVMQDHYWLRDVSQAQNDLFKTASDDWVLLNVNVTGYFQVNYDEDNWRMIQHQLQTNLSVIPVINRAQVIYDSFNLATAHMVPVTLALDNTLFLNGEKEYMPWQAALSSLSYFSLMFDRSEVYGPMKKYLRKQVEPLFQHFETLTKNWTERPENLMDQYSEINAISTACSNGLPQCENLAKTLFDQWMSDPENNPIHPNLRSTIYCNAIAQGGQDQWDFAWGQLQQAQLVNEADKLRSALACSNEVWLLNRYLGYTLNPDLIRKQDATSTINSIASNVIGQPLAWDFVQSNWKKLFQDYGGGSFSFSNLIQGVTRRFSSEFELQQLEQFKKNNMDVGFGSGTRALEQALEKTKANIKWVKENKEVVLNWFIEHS

Sequence of 72 kDa type IV collagenase (P08253 whole entry): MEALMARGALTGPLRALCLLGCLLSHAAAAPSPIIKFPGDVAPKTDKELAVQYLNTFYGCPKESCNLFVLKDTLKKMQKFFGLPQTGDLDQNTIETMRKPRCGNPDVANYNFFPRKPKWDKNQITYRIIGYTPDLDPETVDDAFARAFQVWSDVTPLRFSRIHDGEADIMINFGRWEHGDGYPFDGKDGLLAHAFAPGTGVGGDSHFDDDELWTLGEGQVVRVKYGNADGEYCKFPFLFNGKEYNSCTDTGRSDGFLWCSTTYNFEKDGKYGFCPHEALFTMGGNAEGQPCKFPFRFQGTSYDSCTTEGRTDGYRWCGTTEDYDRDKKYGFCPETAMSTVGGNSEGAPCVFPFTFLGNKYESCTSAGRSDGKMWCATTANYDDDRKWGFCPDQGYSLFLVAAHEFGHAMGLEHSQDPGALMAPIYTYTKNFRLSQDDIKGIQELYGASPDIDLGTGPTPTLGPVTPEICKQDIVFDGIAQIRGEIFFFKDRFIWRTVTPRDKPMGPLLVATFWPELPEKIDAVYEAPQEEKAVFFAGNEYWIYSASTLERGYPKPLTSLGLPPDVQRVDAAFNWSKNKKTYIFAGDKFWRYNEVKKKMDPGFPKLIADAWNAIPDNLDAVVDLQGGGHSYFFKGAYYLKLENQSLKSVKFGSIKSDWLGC

`COc1ccc(/C=C/C(=O)N[C@@H](CCC(=O)O)C(=O)Nc2ccc(Cl)cc2)cc1OC` gave an IC50 ([1]; read-out: IC50) of 59.9 µM and an IC50 ([2]; read-out: IC50) of 34.5 µM.

`COC(=O)C(C)NC(=O)[C@H](CCC(=O)O)NC(=O)/C=C/c1ccc(OC)c(OC)c1` (stereo not given in full) was tested, and the IC50 ([1]; read-out: IC50) was 83.2 µM and the IC50 ([2]; read-out: IC50) was 55.1 µM.

For `CCNC(=O)[C@H](CCC(=O)O)NC(=O)/C=C/c1ccc(OC)c(OC)c1`, the IC50 ([1]; read-out: IC50) was 211 µM and the IC50 ([2]; read-out: IC50) was 184 µM.

Work on `COc1ccc(/C=C/C(=O)N[C@@H](CCC(=O)O)C(=O)NCc2ccccc2)cc1OC` yielded an IC50 ([1]; read-out: IC50) of 236 µM and an IC50 ([2]; read-out: IC50) of 178 µM.

`COc1ccc(/C=C/C(=O)N[C@@H](CCC(=O)Nc2ccc(F)cc2)C(=O)Nc2ccc(F)cc2)cc1OC` gave an IC50 ([1]; read-out: IC50) of 368 µM and an IC50 ([2]; read-out: IC50) of 371 µM.

Compound `COc1ccc(/C=C/C(=O)N[C@@H](CCC(=O)O)C(=O)Nc2ccc(Br)cc2)cc1OC` has an IC50 ([1]; read-out: IC50) of 71.2 µM and an IC50 ([2]; read-out: IC50) of 58.1 µM.

With `COc1ccc(/C=C/C(=O)N[C@@H](CCC(=O)Nc2ccccc2F)C(=O)Nc2ccccc2F)cc1OC` the IC50 ([1]; read-out: IC50) was 471 µM and the IC50 ([2]; read-out: IC50) was 405 µM.

In the case of `COc1ccc(/C=C/C(=O)N[C@@H](CCC(=O)O)C(=O)Nc2ccccc2F)cc1OC`, the IC50 ([1]; read-out: IC50) is reported as 71.4 µM and the IC50 ([2]; read-out: IC50) is reported as 56.8 µM.

Compound `CCCNC(=O)[C@H](CCC(=O)O)NC(=O)/C=C/c1ccc(OC)c(OC)c1` has an IC50 ([1]; read-out: IC50) of 284 µM and an IC50 ([2]; read-out: IC50) of 237 µM.

For `COC(=O)C(NC(=O)[C@H](CCC(=O)O)NC(=O)/C=C/c1ccc(OC)c(OC)c1)C(C)C` (stereo not given in full), the IC50 ([1]; read-out: IC50) was 76.8 µM and the IC50 ([2]; read-out: IC50) was 69.2 µM.

`COc1ccc(/C=C/C(=O)N[C@@H](CCC(=O)O)C(=O)Nc2cc(F)cc(F)c2)cc1OC` gave an IC50 ([1]; read-out: IC50) of 116 µM and an IC50 ([2]; read-out: IC50) of 98.6 µM.

`COC(=O)CC(NC(=O)CC[C@H](NC(=O)/C=C/c1ccc(OC)c(OC)c1)C(=O)NC(CC(=O)OC)C(=O)OC)C(=O)OC` (stereo not given in full) showed an IC50 ([1]; read-out: IC50) of 341 µM and an IC50 ([2]; read-out: IC50) of 213 µM.

`COC(=O)CNC(=O)[C@H](CCC(=O)O)NC(=O)/C=C/c1ccc(OC)c(OC)c1` was tested, and the IC50 ([1]; read-out: IC50) was 79.6 µM and the IC50 ([2]; read-out: IC50) was 50.4 µM.

Compound `COc1ccc(/C=C/C(=O)N[C@@H](CCC(=O)Nc2ccc(C)cc2)C(=O)Nc2ccc(C)cc2)cc1OC` has an IC50 ([1]; read-out: IC50) of 398 µM and an IC50 ([2]; read-out: IC50) of 335 µM.

`COc1ccc(/C=C/C(=O)N[C@@H](CCC(=O)Nc2ccc(Cl)cc2)C(=O)Nc2ccc(Cl)cc2)cc1OC` showed an IC50 ([1]; read-out: IC50) of 471 µM and an IC50 ([2]; read-out: IC50) of 405 µM.

For `COc1ccc(/C=C/C(=O)N[C@@H](CCC(=O)O)C(=O)Nc2ccc(C)cc2)cc1OC`, the IC50 ([1]; read-out: IC50) was 37.8 µM and the IC50 ([2]; read-out: IC50) was 20.7 µM.

For `COc1ccc(/C=C/C(=O)N[C@@H](CCC(=O)O)C(=O)NCC(C)C)cc1OC`, the IC50 ([1]; read-out: IC50) was 256 µM and the IC50 ([2]; read-out: IC50) was 207 µM.

Compound `COC(=O)C(Cc1ccc(F)cc1)NC(=O)[C@H](CCC(=O)O)NC(=O)/C=C/c1ccc(OC)c(OC)c1` (stereo not given in full) has an IC50 ([1]; read-out: IC50) of 76.5 µM and an IC50 ([2]; read-out: IC50) of 43.7 µM.

With `CNC(=O)[C@H](CCC(=O)O)NC(=O)/C=C/c1ccc(OC)c(OC)c1` the IC50 ([1]; read-out: IC50) was 159 µM and the IC50 ([2]; read-out: IC50) was 126 µM.

In the case of `COc1ccc(/C=C/C(=O)N[C@@H](CCC(=O)Nc2ccc(Br)cc2)C(=O)Nc2ccc(Br)cc2)cc1OC`, the IC50 [1] is reported as “Not Active” and the IC50 ([2]; read-out: IC50) is reported as 578 µM.

With `COc1ccc(/C=C/C(=O)N[C@@H](CCC(=O)O)C(=O)Nc2ccc(F)cc2)cc1OC` the IC50 ([1]; read-out: IC50) was 47.6 µM and the IC50 ([2]; read-out: IC50) was 23.4 µM.

Compound `COC(=O)CC(NC(=O)[C@H](CCC(=O)O)NC(=O)/C=C/c1ccc(OC)c(OC)c1)C(=O)OC` (stereo not given in full) has an IC50 ([1]; read-out: IC50) of 101 µM and an IC50 ([2]; read-out: IC50) of 60.5 µM.

In the case of `COc1ccc(/C=C/C(=O)N[C@@H](CCC(=O)O)C(=O)Nc2cccc(Cl)c2)cc1OC`, the IC50 ([1]; read-out: IC50) is reported as 121 µM and the IC50 ([2]; read-out: IC50) is reported as 80.5 µM.

Compound `COc1ccc(/C=C/C(=O)N[C@@H](CCC(=O)O)C(=O)Nc2ccccc2Cl)cc1OC` has an IC50 ([1]; read-out: IC50) of 64.3 µM and an IC50 ([2]; read-out: IC50) of 38.3 µM.

With `COc1ccc(/C=C/C(=O)N[C@@H](CCC(=O)Nc2cc(F)cc(F)c2)C(=O)Nc2cc(F)cc(F)c2)cc1OC` the IC50 [1] was “Not Active” and the IC50 [2] was “Not Active”.
